In US9708314B2, “Heterocyclic amide compound” (NISSAN CHEMICAL INDUSTRIES, LTD., priority 2013, dated 2017):

How the values were obtained:
Format in all cases: in vivo
[1] = tested on: Echinochloa crus-galli var. crus-galli; assay: Test Example 3: herbicidal effect by application to foliage (Wagner pot, water depth 0.1-0.5 cm); conditions: Nineteenth Table; application to foliage; application herbicide amount 320 g/ha
How it was run: (§1)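 Rice-field weeds and directly sown rice were grown 14 days in flooded alluvial soil (water depth 0.1–0.5 cm) at 25–30 °C in a greenhouse. An emulsion formulation diluted to the stated g/ha rate was sprayed onto stems and leaves. Effects were scored on a 0–5 scale (herbicidal ratio bands) three weeks after treatment.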

[2] = tested on: Cyperus difformis; assay: as above; conditions: Nineteenth Table; application to foliage; application herbicide amount 320 g/ha
How it was run: as §1

[3] = tested on: Leptochloa chinensis; assay: as above; conditions: Nineteenth Table; application to foliage; application herbicide amount 320 g/ha
How it was run: as §1

[4] = tested on: Echinochloa crus-galli var. crus-galli; assay: Test Example 4: herbicidal effect by application to foliage (diluvial soil, plastic box); conditions: 320 g/ha; for H (Echinochloa crus-galli var. crus-galli) herbicidal effect grade: foliage application
How it was run: (§2)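 Plants were grown in sterilized diluvial soil in a greenhouse at 25-30° C for 14 days, then sprayed on stems and leaves with water-diluted emulsion formulation at set rates in g/ha. Weed control and crop injury were scored 3 weeks after treatment on a 0-5 herbicidal-ratio scale, from 0 (≤5%) to 5 (≥90%).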

[5] = tested on: Apera spica-venti.; assay: as above; conditions: 320 g/ha; for L (Apera spica-venti.) herbicidal effect grade: foliage application
How it was run: as §2

[6] = tested on: Alopecurus myosuroides; assay: as above; conditions: 320 g/ha; for J (Alopecurus myosuroides) herbicidal effect grade: foliage application
How it was run: as §2

[7] = tested on: Veronica persica; assay: as above; conditions: 320 g/ha; for R (Veronica persica) herbicidal effect grade: foliage application
How it was run: as §2

[8] = tested on: Digitaria ciliaris; assay: as above; conditions: 320 g/ha; for F (Digitaria ciliaris) herbicidal effect grade: foliage application
How it was run: as §2

[9] = tested on: Amaranthus retroflexus; assay: as above; conditions: 320 g/ha; for N (Amaranthus retroflexus) herbicidal effect grade: foliage application
How it was run: as §2

[10] = tested on: Stellaria media; assay: as above; conditions: 320 g/ha; for P (Stellaria media) herbicidal effect grade: foliage application
How it was run: as §2

[11] = tested on: Chenopodium album; assay: as above; conditions: 320 g/ha; for O (Chenopodium album) herbicidal effect grade: foliage application
How it was run: as §2

[12] = tested on: Setaria viridis; assay: as above; conditions: 320 g/ha; for G (Setaria viridis) herbicidal effect grade: foliage application
How it was run: as §2

[13] = tested on: Abutilon theophrasti; assay: as above; conditions: 320 g/ha; for M (Abutilon theophrasti) herbicidal effect grade: foliage application
How it was run: as §2

[14] = tested on: Galium spurium; assay: as above; conditions: 320 g/ha; for Q (Galium spurium) herbicidal effect grade: foliage application
How it was run: as §2

[15] = tested on: Avena fatua; assay: as above; conditions: 320 g/ha; for I (Avena fatua) herbicidal effect grade: foliage application
How it was run: as §2

[16] = tested on: Lolium multiflorum Lam.; assay: as above; conditions: 320 g/ha; for K (Lolium multiflorum Lam.) herbicidal effect grade: foliage application
How it was run: as §2

[17] = tested on: directly sowed Oryza sativa; assay: Test Example 4: effect on crop by application to foliage (diluvial soil, plastic box); conditions: 320 g/ha; for d (directly sowed Oryza sativa) effect on crop grade: foliage application
How it was run: as §2

[18] = tested on: Beta vulgaris ssp. vulgaris; assay: as above; conditions: 320 g/ha; for f (Beta vulgaris ssp. vulgaris) effect on crop grade: foliage application
How it was run: as §2

[19] = tested on: Zea mays; assay: as above; conditions: 320 g/ha; for b (Zea mays) effect on crop grade: foliage application
How it was run: as §2

[20] = tested on: Glycine max; assay: as above; conditions: 320 g/ha; for c (Glycine max) effect on crop grade: foliage application
How it was run: as §2

[21] = tested on: Brassica campestris L.; assay: as above; conditions: 320 g/ha; for g (Brassica campestris L.) effect on crop grade: foliage application
How it was run: as §2

[22] = tested on: Triticum aestivum; assay: as above; conditions: 320 g/ha; for e (Triticum aestivum) effect on crop grade: foliage application
How it was run: as §2

Structure (SMILES)	H (herbicidal effect grade) [1]	E (herbicidal effect grade) [2]	D (herbicidal effect grade) [3]	H (Echinochloa crus-galli var. crus-galli) herbicidal effect grade [4]	L (Apera spica-venti.) herbicidal effect grade [5]	J (Alopecurus myosuroides) herbicidal effect grade [6]	R (Veronica persica) herbicidal effect grade [7]	F (Digitaria ciliaris) herbicidal effect grade [8]	N (Amaranthus retroflexus) herbicidal effect grade [9]	P (Stellaria media) herbicidal effect grade [10]	O (Chenopodium album) herbicidal effect grade [11]	G (Setaria viridis) herbicidal effect grade [12]	M (Abutilon theophrasti) herbicidal effect grade [13]	Q (Galium spurium) herbicidal effect grade [14]	I (Avena fatua) herbicidal effect grade [15]	K (Lolium multiflorum Lam.) herbicidal effect grade [16]	d (directly sowed Oryza sativa) effect on crop grade [17]	f (Beta vulgaris ssp. vulgaris) effect on crop grade [18]	b (Zea mays) effect on crop grade [19]	c (Glycine max) effect on crop grade [20]	other results
Cn1nnnc1NC(=O)c1ccc(C(F)(F)F)n2c(-c3cc(Cl)cc(Cl)c3)nnc12 [2-064]	1 (Herbicidal ratio of 5% or more and less than 20%)	5 (Herbicidal ratio of 90% or more (almost completely withered))	4 (Herbicidal ratio of 70% or more and less than 90%)	3 (Herbicidal ratio of 40% or more and less than 70%)	0 (Herbicidal ratio of 5% or less (almost no effect))	0 (Herbicidal ratio of 5% or less (almost no effect))	5 (Herbicidal ratio of 90% or more (almost completely withered))	3 (Herbicidal ratio of 40% or more and less than 70%)	5 (Herbicidal ratio of 90% or more (almost completely withered))	5 (Herbicidal ratio of 90% or more (almost completely withered))	5 (Herbicidal ratio of 90% or more (almost completely withered))	2 (Herbicidal ratio of 20% or more and less than 40%)	5 (Herbicidal ratio of 90% or more (almost completely withered))	1 (Herbicidal ratio of 5% or more and less than 20%)	0 (Herbicidal ratio of 5% or less (almost no effect))	0 (Herbicidal ratio of 5% or less (almost no effect))	3 (Herbicidal ratio of 40% or more and less than 70%)	4 (Herbicidal ratio of 70% or more and less than 90%)	0 (Herbicidal ratio of 5% or less (almost no effect))	0 (Herbicidal ratio of 5% or less (almost no effect))	g (Brassica campestris L.) effect on crop grade [21]: 3 (Herbicidal ratio of 40% or more and less than 70%); e (Triticum aestivum) effect on crop grade [22]: 0 (Herbicidal ratio of 5% or less (almost no effect))
Cn1nnnc1NC(=O)c1ccc(C(F)(F)F)n2c(N3CCSCC3)nnc12 [2-078]	5 (Herbicidal ratio of 90% or more (almost completely withered))	3 (Herbicidal ratio of 40% or more and less than 70%)	5 (Herbicidal ratio of 90% or more (almost completely withered))																		herbicidal effect, H (Echinochloa crus-galli var. crus-galli) ([4]; application to foliage): 5 (Herbicidal ratio of 90% or more (almost completely withered)); herbicidal effect, L (Apera spica-venti.) ([5]; application to foliage): 5 (Herbicidal ratio of 90% or more (almost completely withered)); herbicidal effect, J (Alopecurus myosuroides) ([6]; application to foliage): 4 (Herbicidal ratio of 70% or more and less than 90%); herbicidal effect, R (Veronica persica) ([7]; application to foliage): 5 (Herbicidal ratio of 90% or more (almost completely withered)); herbicidal effect, F (Digitaria ciliaris) ([8]; application to foliage): 5 (Herbicidal ratio of 90% or more (almost completely withered)); herbicidal effect, N (Amaranthus retroflexus) ([9]; application to foliage): 5 (Herbicidal ratio of 90% or more (almost completely withered)); herbicidal effect, P (Stellaria media) ([10]; application to foliage): 5 (Herbicidal ratio of 90% or more (almost completely withered)); herbicidal effect, O (Chenopodium album) ([11]; application to foliage): 5 (Herbicidal ratio of 90% or more (almost completely withered)); herbicidal effect, G (Setaria viridis) ([12]; application to foliage): 5 (Herbicidal ratio of 90% or more (almost completely withered)); herbicidal effect, M (Abutilon theophrasti) ([13]; application to foliage): 5 (Herbicidal ratio of 90% or more (almost completely withered)); herbicidal effect, Q (Galium spurium) ([14]; application to foliage): 4 (Herbicidal ratio of 70% or more and less than 90%); herbicidal effect, I (Avena fatua) ([15]; application to foliage): 3 (Herbicidal ratio of 40% or more and less than 70%); herbicidal effect, K (Lolium multiflorum Lam.) ([16]; application to foliage): 4 (Herbicidal ratio of 70% or more and less than 90%); effect on crop, d (directly sowed Oryza sativa) ([17]; application to foliage): 4 (Herbicidal ratio of 70% or more and less than 90%); effect on crop, f (Beta vulgaris ssp. vulgaris) ([18]; application to foliage): 5 (Herbicidal ratio of 90% or more (almost completely withered)); effect on crop, b (Zea mays) ([19]; application to foliage): 4 (Herbicidal ratio of 70% or more and less than 90%); effect on crop, c (Glycine max) ([20]; application to foliage): 1 (Herbicidal ratio of 5% or more and less than 20%); effect on crop, g (Brassica campestris L.) ([21]; application to foliage): 5 (Herbicidal ratio of 90% or more (almost completely withered)); effect on crop, e (Triticum aestivum) ([22]; application to foliage): 2 (Herbicidal ratio of 20% or more and less than 40%)
Cc1ccc(-c2nnc3c(C(=O)Nc4nnnn4C)ccc(C(F)(F)F)n23)cc1 [2-042]	5 (Herbicidal ratio of 90% or more (almost completely withered))	5 (Herbicidal ratio of 90% or more (almost completely withered))	5 (Herbicidal ratio of 90% or more (almost completely withered))	5 (Herbicidal ratio of 90% or more (almost completely withered))	0 (Herbicidal ratio of 5% or less (almost no effect))	2 (Herbicidal ratio of 20% or more and less than 40%)	5 (Herbicidal ratio of 90% or more (almost completely withered))	5 (Herbicidal ratio of 90% or more (almost completely withered))	5 (Herbicidal ratio of 90% or more (almost completely withered))	3 (Herbicidal ratio of 40% or more and less than 70%)	5 (Herbicidal ratio of 90% or more (almost completely withered))	5 (Herbicidal ratio of 90% or more (almost completely withered))	5 (Herbicidal ratio of 90% or more (almost completely withered))	1 (Herbicidal ratio of 5% or more and less than 20%)	2 (Herbicidal ratio of 20% or more and less than 40%)	1 (Herbicidal ratio of 5% or more and less than 20%)	3 (Herbicidal ratio of 40% or more and less than 70%)	4 (Herbicidal ratio of 70% or more and less than 90%)	4 (Herbicidal ratio of 70% or more and less than 90%)	0 (Herbicidal ratio of 5% or less (almost no effect))	g (Brassica campestris L.) effect on crop grade [21]: 2 (Herbicidal ratio of 20% or more and less than 40%); e (Triticum aestivum) effect on crop grade [22]: 0 (Herbicidal ratio of 5% or less (almost no effect))
